# Measured values taken from patent publication US6469028B1, “Synthesis and use of retinoid compounds having negative hormone and/or anatgonist activities” (Allergan, Inc., priority 1995, dated 2002).
# Columns and labels:
# [1] = tested on: tissue transglutaminase (TGase) gene in HL-60 cells; assay: TGase activity in HL-60 cells; assay type: cell-based; details: TGase induced by RXR agonists
# From the text: This same mechanism can account for the observation that AGN 193109 can repress the activity of the tissue transglutaminase (TGase) gene in HL-60 cells. A retinoid response element consisting of three canonical retinoid half sites spaced by 5 and 7 base pairs has been identified in the transcription control region of this gene. While TGase can be induced by RXR-selective agonists, it is not responsive to RAR-selective agonists. The TGase retinoid response element is bound by an RAR/RXR heterodimer (Davies et al. in Press). […] This AGN 193109 mediated repression can be accounted for by the ability of this negative hormone to sequester NCPs to the RAR component of the heterodimer, thereby repressing the activity of the associated RXR.
# [2] = tested on: MRP-8 expression in primary foreskin keratinocytes; assay: Example 20: MRP-8 expression in keratinocytes (RT-PCR); assay type: cell-based, human; details: AGN 191183 10^−7 M or AGN 193109 10^−6 M, 3 days
# From the text: Primary foreskin keratinocytes were isolated according to the procedure described by Nagpal et al. in J. Biol. Chem. 270:923 (1995) and cultured in keratinocyte growth medium (KGM) that was purchased from Clonetics. […] The mRNA was reverse transcribed into cDNA which then served as the template in a PCR amplification protocol using primers specific for either the glyceraldehyde phosphate dehydrogenase (GAPDH) housekeeping gene or MRP-8. The GAPDH primers had the sequences [NT] ID NO:6) and [NT] ID NO:7). The MRP-8 primers had the sequences [NT] ID NO:8) and [NT] ID NO:9). An aliquot from the MRP-8 amplification reaction (10 μl) was removed after every cycle of PCR amplification starting from 12 cycles and ending at 21 cycles. Similarly, an aliquot of the GAPDH amplification reaction was removed after every PCR cycle starting at 15 cycles and ending at 24 cycles. […] The staining intensity of the amplification products served as a quantitative measure of the amount of starting MRNA specific for the given primer set.
# [3] = tested on: cervical carcinoma patients; assay: Example 23: clinical study in cervical carcinoma patients with metastatic disease; assay type: in vivo, human; details: maximum tolerated dose every other day, three months to one year
# Method: Patients are divided into two groups. The first group is a control group while members of the second group are treated with AGN 193109. AGN 193109 is combined with a pharmaceutically acceptable excipient to produce a composition suitable for systemic administration, all according to techniques that will be familiar to one having ordinary skill in the art. The control group is administered a placebo formulation and the experimental group is administered with the formulation containing the AGN 193109 negative hormone. Dosing of patients is at the maximum tolerated dose and is performed every other day for a period of from three months to one year. The outcome of the study is quantified via measurement of disease-free survival over time.
# [4] = target: T1, RARα (Homo sapiens, UniProt P10276); assay: Transactivation in CV-1 cells, ΔMTV-TREp-Luc reporter; assay type: cell-based; parameters: expressed in transfected cells; host or cells: green monkey CV-1 cells; details: 10^−9 to 10^−6 M, 18 hours
# T1 sequence (P10276 1-462): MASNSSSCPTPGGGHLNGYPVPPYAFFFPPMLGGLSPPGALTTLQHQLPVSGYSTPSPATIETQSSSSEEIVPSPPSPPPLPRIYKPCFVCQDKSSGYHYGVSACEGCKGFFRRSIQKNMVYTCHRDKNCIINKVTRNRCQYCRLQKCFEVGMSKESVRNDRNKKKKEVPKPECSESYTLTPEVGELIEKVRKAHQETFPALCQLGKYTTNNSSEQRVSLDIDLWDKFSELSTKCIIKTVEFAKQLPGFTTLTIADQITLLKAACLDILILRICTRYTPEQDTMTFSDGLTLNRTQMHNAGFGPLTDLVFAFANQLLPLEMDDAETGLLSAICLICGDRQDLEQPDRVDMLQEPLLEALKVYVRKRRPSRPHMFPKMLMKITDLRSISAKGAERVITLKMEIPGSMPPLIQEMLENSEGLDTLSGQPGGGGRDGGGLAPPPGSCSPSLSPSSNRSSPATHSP
# Method: (§1) AGN 193109 was also tested for its ability to transactivate RARs in CV-1 cells transiently cotransfected with RAR expression vectors and a retinoid responsive reporter gene construct. Receptor expression vectors pRShRAR-α (Giguere et al. Nature 330:624 (1987)), pRShRAR-β (Benbrook et al. Nature 333:669 (1988)) and pRShRAR-γ (Ishikawa et al. Mol. Endocrinol. 4:837 (1990)) were separately cotransfected with the ΔMTV-TREp-Luc reporter plasmid. Use of this luciferase reporter plasmid has been disclosed by Heyman et al. in Cell 68:397 (1992). The ΔMTV-TREp-Luc plasmid is essentially identical to the ΔMTV-TREp-CAT reporter construct described by Umesono et al. in Nature 336:262 (1988), except that the chloramphenicol acetyltransferase (CAT) reporter gene was substituted by a polynucleotide sequence encoding firefly luciferase. Transfection of green monkey CV-1 cells was carried out using the calcium phosphate coprecipitation method described in Molecular Cloning: A Laboratory Manual (Sambrook et al. eds. Cold Spring Harbor Lab Publ. 1989). CV-1 cells were plated at a density of 4×10^4/well in 12 well multiwell plates and transiently transfected with a calcium phosphate precipitate containing 0.7 μg of reporter plasmid and 0.1 μg of receptor plasmid according to standard laboratory procedures. […]
# [5] = target: T2, RARβ (Homo sapiens, UniProt P10826); assay: as above; assay type: cell-based; parameters: expressed in transfected cells; host or cells: green monkey CV-1 cells; details: 10^−9 to 10^−6 M, 18 hours
# T2 sequence (P10826 1-448 isoform P10826-2): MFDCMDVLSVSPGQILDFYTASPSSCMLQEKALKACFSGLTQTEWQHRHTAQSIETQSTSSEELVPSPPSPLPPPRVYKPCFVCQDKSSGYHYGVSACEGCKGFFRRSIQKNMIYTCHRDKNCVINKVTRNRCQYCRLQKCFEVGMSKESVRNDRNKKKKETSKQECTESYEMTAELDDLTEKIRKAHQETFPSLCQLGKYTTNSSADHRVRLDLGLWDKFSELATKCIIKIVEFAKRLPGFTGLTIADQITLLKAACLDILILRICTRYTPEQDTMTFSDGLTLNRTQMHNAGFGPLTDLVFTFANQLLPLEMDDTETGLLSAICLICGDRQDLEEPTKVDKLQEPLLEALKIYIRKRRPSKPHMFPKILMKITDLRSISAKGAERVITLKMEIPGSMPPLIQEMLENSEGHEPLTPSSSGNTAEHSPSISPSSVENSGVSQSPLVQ
# Method: as §1
smiles,measurement,setting,value
"Cc1ccc(C2=CCC(C)(C)c3ccc(C#Cc4ccc(C(=O)O)cc4)cc32)cc1 [Compound 60, 4-[(5,6-dihydro-5,5-dimethyl-8-(4-methylphenyl)-2-naphthalenyl)ethynyl]benzoic acid]",TGase activity,[1],able to repress TGase activity induced by RXR agonists
same,MRP-8 mRNA expression,[2],repressed MRP8 expression
same,disease-free survival,[3],significant increase in disease-free survival
same,EC50 (nM) RAR-α,[4],No Activity
same,EC50 (nM) RAR-β,[5],No Activity
